Values quoted from earlier work, collected in patent US8728493B2, “Polymer based compositions and conjugates of non-steroidal anti-inflammatory drugs” (Nektar Therapeutics, priority 2005, dated 2014).

Conditions: non-conjugated drug; conditions not stated

In the case of `O=C(c1ccccc1)c1ccc2n1CCC2C(=O)O` (stereo not shown) [non-conjugated ketorolac, ketorolac], the “half-life of non-conjugated ketorolac” value is listed as “approximately 2 hours”.
